Assay results as given in PubChem BioAssay AID266 (DTP/NCI, 2004).
Where “and” joins values, the source holds several entries; their conditions need not be identical. Equal values may be shown once. Results filed as inconclusive are left out.

Tested on: Nude mice, LX-1 lung xenograft intrarenal, tumor weight T/C
Assay: NCI In Vivo Anticancer Drug Screen. Data for tumor model Human Lung LX-1 Xenograft (intrarenal inoculation) in NU/NU BALB/C (nude) mice
Settings: endpoint: mean tumor weight change, higher = larger tumour
Method: The antitumor activity of compounds was measured in mice bearing transplantable tumors. Survival or tumor size were measured and the results are expressed as the measurement made in the treated group (T) divided by the measurement made in the vehicle treated control group (C). The tumor model used in this assay is Human Lung LX-1 Xenograft (intrarenal inoculation) in NU/NU BALB/C (nude) mice

[1] = dose: 50.0 mg/kg/injection, schedule: Q04DX003 (sc), vehicle: saline
[2] = dose: 100.0 mg/kg/injection, schedule: Q04DX003 (sc), vehicle: saline
[3] = dose: 100.0 mg/kg/injection, schedule: Q01DX010 (sc), vehicle: Klucel (hydroxypropylcellulose) (HPC)
[4] = dose: 150.0 mg/kg/injection, schedule: Q04DX003 (sc), vehicle: saline
[5] = dose: 300.0 mg/kg/injection, schedule: Q04DX003 (sc), vehicle: saline

COc1ccc(N=N/N=c2\sc3cc(OC)ccc3n2C)cc1
T/C (dose: 30.0 mg/kg/injection, schedule: Q04DX003 (ip), vehicle: saline with Tween-80): 117 % of control
T/C (dose: 60.0 mg/kg/injection, schedule: Q04DX003 (ip), vehicle: saline with Tween-80): 94 % of control
T/C (dose: 75.0 mg/kg/injection, schedule: Q04DX003 (ip), vehicle: saline with Tween-80): 99 % of control
T/C (dose: 120.0 mg/kg/injection, schedule: Q04DX003 (ip), vehicle: saline with Tween-80): 55 % of control
T/C (dose: 150.0 mg/kg/injection, schedule: Q04DX003 (ip), vehicle: saline with Tween-80): 80 % of control
T/C (dose: 240.0 mg/kg/injection, schedule: Q04DX003 (ip), vehicle: saline with Tween-80): 67 % of control
T/C (dose: 300.0 mg/kg/injection, schedule: Q04DX003 (ip), vehicle: saline with Tween-80): 50 % of control

NC1=NC(=O)N2CC12 (stereo not given)
T/C [1]: 101 % of control
T/C [2]: 102 % of control
T/C (dose: 200.0 mg/kg/injection, schedule: Q04DX003 (sc), vehicle: saline): 108 % of control

O=CC(O)C(O)C(O)C(O)CO (stereo not given)
T/C (dose: 75.0 mg/kg/injection, schedule: Q04DX003 (ip), vehicle: saline): 103 % of control
T/C (dose: 150.0 mg/kg/injection, schedule: Q04DX003 (ip), vehicle: saline): 101 % of control
T/C (dose: 300.0 mg/kg/injection, schedule: Q04DX003 (ip), vehicle: saline): 115 % of control
T/C (dose: 600.0 mg/kg/injection, schedule: Q04DX003 (ip), vehicle: saline): 88 % of control
T/C (dose: 1200.0 mg/kg/injection, schedule: Q04DX003 (ip), vehicle: saline): 95 % of control

CC(=O)NC(CCc1ccc(Cl)c(Cl)c1)c1cccc(O)c(=O)c1 (stereo not given)
T/C (dose: 50.0 mg/kg/injection, schedule: Q04DX003 (ip), vehicle: Klucel (hydroxypropylcellulose) (HPC)): 52 % of control
T/C (dose: 100.0 mg/kg/injection, schedule: Q04DX003 (ip), vehicle: Klucel (hydroxypropylcellulose) (HPC)): 62 % of control
T/C (dose: 200.0 mg/kg/injection, schedule: Q04DX003 (ip), vehicle: Klucel (hydroxypropylcellulose) (HPC)): 57 % of control

COc1cccc2c1C(=O)c1c(O)c3c(c(O)c1C2=O)C[C@@](O)(C(=O)CO)C[C@@H]3OC1CC(OC(C)=O)C(OC(C)=O)C(C)O1 (stereo not given in full)
T/C (dose: 25.0 mg/kg/injection, schedule: Q01DX010 (sc), vehicle: distilled water + Tween-80): 53 % of control

Cc1ccc(S(=O)(=O)NC(=O)OC23COCN2COC3)cc1
T/C (dose: 200.0 mg/kg/injection, schedule: Q04DX003 (sc), vehicle: saline with Tween-80): 118 % of control
T/C (dose: 400.0 mg/kg/injection, schedule: Q04DX003 (sc), vehicle: saline with Tween-80): 121 % of control
T/C (dose: 800.0 mg/kg/injection, schedule: Q04DX003 (sc), vehicle: saline with Tween-80): 153 % of control
T/C (dose: 1600.0 mg/kg/injection, schedule: Q04DX003 (sc), vehicle: saline with Tween-80): 112 % of control

CC(=Nc1ccccc1)C1=C(O)C(Cc2ccccc2)NC1=O (stereo not given)
T/C (dose: 300.0 mg/kg/injection, schedule: Q04DX003 (sc), vehicle: saline with Tween-80): 52 % of control
T/C (dose: 600.0 mg/kg/injection, schedule: Q04DX003 (sc), vehicle: saline with Tween-80): 32 % of control
T/C (dose: 1200.0 mg/kg/injection, schedule: Q04DX003 (sc), vehicle: saline with Tween-80): 40 % of control
T/C (dose: 2400.0 mg/kg/injection, schedule: Q04DX003 (sc), vehicle: saline with Tween-80): 30 % of control

COC1N(C2CC(O)C(CO)O2)C(=O)NC(=O)C1(F)Br (stereo not given)
T/C (dose: 12.5 mg/kg/injection, schedule: Q01DX010 (sc), vehicle: saline): 54 % of control
T/C (dose: 50.0 mg/kg/injection, schedule: Q01DX010 (sc), vehicle: saline): 12 % of control and 24 % of control
T/C (dose: 100.0 mg/kg/injection, schedule: Q01DX010 (sc), vehicle: saline): 12 % of control and 13 % of control

O=NN(CCCl)C(=O)NC1CCCCC1
T/C (dose: 12.5 mg/kg/injection, schedule: Q04DX003 (sc), vehicle: Klucel (hydroxypropylcellulose) (HPC)): 47 % of control
T/C (dose: 25.0 mg/kg/injection, schedule: Q04DX003 (sc), vehicle: Klucel (hydroxypropylcellulose) (HPC)): 29 % of control
T/C (dose: 26.66 mg/kg/injection, schedule: Q04DX003 (sc), vehicle: saline with Tween-80): 4 % of control
T/C (dose: 50.0 mg/kg/injection, schedule: Q04DX003 (sc), vehicle: Klucel (hydroxypropylcellulose) (HPC)): -25 % of control
T/C (dose: 53.33 mg/kg/injection, schedule: Q04DX003 (sc), vehicle: saline with Tween-80): -73 % of control
T/C (dose: 100.0 mg/kg/injection, schedule: Q04DX003 (sc), vehicle: Klucel (hydroxypropylcellulose) (HPC)): 4 % of control

COc1cccc2c1C(=O)c1c(O)c3c(c(O)c1C2=O)C[C@@](O)(/C(C)=N\O)C[C@@H]3OC1CC(N)C(O)C(C)O1 (stereo not given in full)
T/C (dose: 25.0 mg/kg/injection, schedule: Q04DX003 (sc), vehicle: saline): 87 % of control
T/C [1]: 65 % of control and 76 % of control
T/C [2]: 17 % of control and 18 % of control

O=NN(CCCl)C(=O)NC1CCC(=O)NC1=O (stereo not given)
T/C (dose: 1.56 mg/kg/injection, schedule: Q01DX010 (sc), vehicle: saline with Tween-80): 25 % of control
T/C (dose: 3.13 mg/kg/injection, schedule: Q01DX010 (sc), vehicle: saline with Tween-80): 12 % of control
T/C (dose: 5.2 mg/kg/injection, schedule: Q04DX003 (sc), vehicle: saline with Tween-80): 58 % of control
T/C (dose: 6.25 mg/kg/injection, schedule: Q01DX010 (sc), vehicle: saline with Tween-80): 1 % of control
T/C (dose: 10.4 mg/kg/injection, schedule: Q04DX003 (sc), vehicle: saline with Tween-80): 3 % of control
T/C (dose: 12.5 mg/kg/injection, schedule: Q01DX010 (sc), vehicle: saline with Tween-80): -100 % of control
T/C (dose: 20.8 mg/kg/injection, schedule: Q04DX003 (sc), vehicle: saline with Tween-80): -47 % of control

CNc1nc(NC)nc(NC)n1
T/C (dose: 25.0 mg/kg/injection, schedule: Q01DX010 (sc), vehicle: Klucel (hydroxypropylcellulose) (HPC)): 85 % of control
T/C [3]: 107 % of control

CC(=O)O[C@H]1C(=O)[C@@]2(C)[C@H]([C@H](OC(=O)c3ccccc3)[C@]3(O)C[C@H](OC(=O)[C@H](O)[C@@H](NC(=O)c4ccccc4)c4ccccc4)C(C)=C1C3(C)C)[C@]1(OC(C)=O)CO[C@@H]1C[C@@H]2O
T/C (dose: 50.0 mg/kg/injection, schedule: Q01DX010 (sc), vehicle: Klucel (hydroxypropylcellulose) (HPC)): 63 % of control
T/C [3]: 93 % of control
T/C (dose: 200.0 mg/kg/injection, schedule: Q01DX010 (sc), vehicle: Klucel (hydroxypropylcellulose) (HPC)): 68 % of control
T/C (dose: 400.0 mg/kg/injection, schedule: Q01DX010 (sc), vehicle: Klucel (hydroxypropylcellulose) (HPC)): 51 % of control

CN(CCN(C)C(=O)CCOS(C)(=O)=O)C(=O)CCOS(C)(=O)=O
T/C (dose: 37.5 mg/kg/injection, schedule: Q04DX003 (sc), vehicle: saline): 90 % of control
T/C (dose: 75.0 mg/kg/injection, schedule: Q04DX003 (sc), vehicle: saline): 91 % of control
T/C [4]: 86 % of control
T/C [5]: 36 % of control

COc1cccc2c1C(=O)c1c(O)c3c(c(O)c1C2=O)C[C@@](O)(C(C)=O)C[C@@H]3OC1CC(N)C(O)C(C)O1 (stereo not given in full)
T/C (dose: 2.0 mg/kg/injection, schedule: Q01DX010 (sc), vehicle: saline): 109 % of control
T/C (dose: 4.0 mg/kg/injection, schedule: Q01DX010 (sc), vehicle: saline): 153 % of control
T/C (dose: 8.0 mg/kg/injection, schedule: Q01DX010 (sc), vehicle: saline): 31 % of control

CC(=O)Oc1c[nH]c(=O)[nH]c1=O
T/C (dose: 200.0 mg/kg/injection, schedule: Q04DX003 (sc), vehicle: distilled water + Tween-80): 98 % of control
T/C (dose: 400.0 mg/kg/injection, schedule: Q04DX003 (sc), vehicle: distilled water + Tween-80): 76 % of control
T/C (dose: 800.0 mg/kg/injection, schedule: Q04DX003 (sc), vehicle: distilled water + Tween-80): 104 % of control

CN(N=O)C(=O)N[C@@H](C=O)[C@@H](O)[C@H](O)[C@H](O)CO
T/C [4]: 40 % of control
T/C [5]: 4 % of control

CCCCCn1c(C)cc(/C=C\c2ccc3cc(C)ccc3[n+]2C)c1C
T/C (dose: 0.25 mg/kg/injection, schedule: Q01DX010 (sc), vehicle: Klucel (hydroxypropylcellulose) (HPC)): 214 % of control
T/C (dose: 1.0 mg/kg/injection, schedule: Q01DX010 (sc), vehicle: Klucel (hydroxypropylcellulose) (HPC)): 212 % of control
T/C (dose: 2.0 mg/kg/injection, schedule: Q01DX010 (sc), vehicle: Klucel (hydroxypropylcellulose) (HPC)): 119 % of control

O=S(=O)(N=N/C=C1\C=CC=CN1O)c1cccs1
T/C (dose: 37.5 mg/kg/injection, schedule: Q04DX003 (sc), vehicle: saline with Tween-80): 121 % of control
T/C (dose: 75.0 mg/kg/injection, schedule: Q04DX003 (sc), vehicle: saline with Tween-80): 82 % of control
T/C (dose: 150.0 mg/kg/injection, schedule: Q04DX003 (sc), vehicle: saline with Tween-80): 103 % of control
